Measured values from patent US11873295B2, “Allosteric chromenone inhibitors of phosphoinositide 3-kinase (PI3K) for the treatment of disease” (Petra Pharma Corporation, priority 2021, dated 2024).

What was measured:
[1] = target: T1, human full length PIK3KA Wild-type (p110α/p85α complex) (Homo sapiens, UniProt P42336); experiment: PI3K-alpha kinase (PIK3CA) biochemical activity, wild-type, ADP-Glo; conditions: PI3K-α (PIK3CA) biochemical, Soy PI lipid substrate
T1 construct: Recombinant, catalytically active human full length PIK3KA Wild-type and H1047R mutant were purchased as 1:1 complex; 6xHis (N); purchased EMD Millipore Sigma 14-602M
Outline: (§1)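 ADP formation, read by ADP-Glo, is run to about 10% ATP turnover at 27 °C with 20 μM ATP and 50 μM PIP2diC8 or soy PI. WT or H1047R p110α/p85α (1–5 nM) is pre-incubated 1 h with compound in HEPES pH 7.4/MgCl2/Triton buffer, 1% DMSO. 10-point 1:3 series, logistic IC50 versus no-enzyme and DMSO controls.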

[2] = target: T2, human full length PIK3KA H1047R mutant (p110α/p85α complex) (Homo sapiens, UniProt P42336, H1047R); experiment: PI3K-alpha kinase (PIK3CA) biochemical activity, H1047R mutant, ADP-Glo; conditions: PI3K-α (PIK3CA) biochemical, H1047R mutant, Soy PI lipid substrate
T2 construct: Recombinant, catalytically active human full length PIK3KA Wild-type and H1047R mutant were purchased as 1:1 complex; 6xHis (N); purchased EMD Millipore Sigma 14-792M
Outline: as §1

[3] = system: PI3K-α (PIK3CA) in MDA-MB-453 cells; experiment: PI3K-alpha kinase (PIK3CA) activity in vitro cell based assay, MDA-MB-453 cells, AlphaLisa SureFire; conditions: Homo sapiens, MDA-MB-453, 3 h, 0% FBS, 3 hours treatment, relative IC50
Outline: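 MDA-MB-453 cells in serum-free MEM with 1 μg/mL insulin treated 3 h with 10-point 1:3 compound dilutions, 0.3% DMSO. Lysates read by AlphaLisa SureFire; percent inhibition relative to DMSO (max) and 1 μM GDC-0032 (min), duplicate means fitted to 4-parameter logistic for relative IC50.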

T2 sequence (P42336 whole entry H1047R): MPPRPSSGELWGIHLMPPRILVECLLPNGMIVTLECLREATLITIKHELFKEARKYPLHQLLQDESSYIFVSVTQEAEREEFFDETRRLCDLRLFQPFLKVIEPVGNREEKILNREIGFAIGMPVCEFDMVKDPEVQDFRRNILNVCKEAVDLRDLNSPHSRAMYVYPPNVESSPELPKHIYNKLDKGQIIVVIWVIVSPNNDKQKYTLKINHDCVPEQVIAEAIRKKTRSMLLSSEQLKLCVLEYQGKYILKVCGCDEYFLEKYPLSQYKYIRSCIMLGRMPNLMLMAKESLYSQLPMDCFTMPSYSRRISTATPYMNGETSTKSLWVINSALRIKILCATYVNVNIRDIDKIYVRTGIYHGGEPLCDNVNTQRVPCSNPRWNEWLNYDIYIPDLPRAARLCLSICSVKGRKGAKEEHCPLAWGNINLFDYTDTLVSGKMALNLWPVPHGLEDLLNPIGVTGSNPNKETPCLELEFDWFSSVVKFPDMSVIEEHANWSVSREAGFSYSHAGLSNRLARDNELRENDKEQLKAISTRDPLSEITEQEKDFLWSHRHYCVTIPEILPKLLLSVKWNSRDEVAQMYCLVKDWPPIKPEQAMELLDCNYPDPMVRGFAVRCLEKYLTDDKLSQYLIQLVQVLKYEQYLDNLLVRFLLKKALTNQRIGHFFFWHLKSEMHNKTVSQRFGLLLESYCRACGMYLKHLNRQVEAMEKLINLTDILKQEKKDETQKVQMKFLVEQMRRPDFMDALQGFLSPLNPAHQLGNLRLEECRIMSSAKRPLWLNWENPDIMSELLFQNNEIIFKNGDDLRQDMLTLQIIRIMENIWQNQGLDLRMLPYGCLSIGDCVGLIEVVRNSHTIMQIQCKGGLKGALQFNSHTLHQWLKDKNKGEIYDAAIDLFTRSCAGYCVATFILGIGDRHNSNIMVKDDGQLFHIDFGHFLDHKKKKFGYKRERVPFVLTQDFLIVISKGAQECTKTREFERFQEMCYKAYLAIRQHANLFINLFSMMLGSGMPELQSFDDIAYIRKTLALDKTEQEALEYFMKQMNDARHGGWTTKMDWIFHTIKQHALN
T2 sequence (P27986 whole entry partner): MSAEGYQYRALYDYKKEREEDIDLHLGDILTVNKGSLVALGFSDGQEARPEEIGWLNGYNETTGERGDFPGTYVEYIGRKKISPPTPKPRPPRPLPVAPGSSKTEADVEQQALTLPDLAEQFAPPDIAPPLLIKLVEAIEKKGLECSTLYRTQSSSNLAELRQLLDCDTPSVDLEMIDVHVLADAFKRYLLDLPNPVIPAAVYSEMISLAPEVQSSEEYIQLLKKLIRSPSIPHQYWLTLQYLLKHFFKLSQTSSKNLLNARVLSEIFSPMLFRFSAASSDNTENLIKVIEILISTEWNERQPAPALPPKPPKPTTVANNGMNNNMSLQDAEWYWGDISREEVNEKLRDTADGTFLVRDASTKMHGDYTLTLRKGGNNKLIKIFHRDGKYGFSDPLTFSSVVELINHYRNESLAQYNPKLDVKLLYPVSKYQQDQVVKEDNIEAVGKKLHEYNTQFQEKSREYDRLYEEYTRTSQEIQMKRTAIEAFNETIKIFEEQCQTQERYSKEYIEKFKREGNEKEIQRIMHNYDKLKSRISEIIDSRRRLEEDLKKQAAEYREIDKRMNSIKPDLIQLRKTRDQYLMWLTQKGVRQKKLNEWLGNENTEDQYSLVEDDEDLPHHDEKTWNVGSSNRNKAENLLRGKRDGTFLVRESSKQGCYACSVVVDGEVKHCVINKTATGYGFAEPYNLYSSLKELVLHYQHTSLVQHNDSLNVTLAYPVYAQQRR

Row | IC50 [1] | IC50 [2] | IC50 [3] | Compound
1 | > 10 µM | 1 to 5 µM | 0.05 to 0.1 µM | Cc1cc([C@@H](C)Nc2cccnc2C(=O)O)c2oc(-c3ccc(F)c(F)c3)c(C)c(=O)c2c1 [Example 120, 3-[[(1R)-1-[2-(3,4-Difluorophenyl)-3,6-dimethyl-4-oxo-chromen-8-yl]ethyl]amino]pyridine-2-carboxylic acid]
2 | 1 to 5 µM | < 0.5 µM | < 0.05 µM | Cc1cc([C@@H](C)Nc2ccc(C)nc2C(=O)O)c2oc(-c3ccccc3)c(C)c(=O)c2c1 [Example 39, 3-[[(1R)-1-(3,6-Dimethyl-4-oxo-2-phenyl-chromen-8-yl)ethyl]amino]-6-methyl-pyridine-2-carboxylic acid]
